Laboratory results reported in patent US20170190705A1, “Compositions and Methods for Inhibiting BMP” (THE BRIGHAM AND WOMAN'S HOSPITAL, INC., priority 2014, published 2017).

How the values were obtained:
Type in all cases: biochemical
KDR = KDR (Homo sapiens, UniProt P35968); test: Kinome profiling KDR; settings: read-out: Inhibitory activity KDR; for inhibition at 0.1 µM: 100 nM
Description: (§1) . The kinome-wide selectivity was determined following the methods previously reported by Mohedas et al., ACS Chem Biol 2013, 8, 1291-1302 and Sanvitale et al., PLoS One 2013, 8, e62721.

SGK1 = target: T1, SGK1 (Homo sapiens, UniProt O00141); test: Kinome profiling SGK1; settings: read-out: Inhibitory activity SGK1; for inhibition at 0.1 µM: 100 nM
T1 sequence (O00141 1-431): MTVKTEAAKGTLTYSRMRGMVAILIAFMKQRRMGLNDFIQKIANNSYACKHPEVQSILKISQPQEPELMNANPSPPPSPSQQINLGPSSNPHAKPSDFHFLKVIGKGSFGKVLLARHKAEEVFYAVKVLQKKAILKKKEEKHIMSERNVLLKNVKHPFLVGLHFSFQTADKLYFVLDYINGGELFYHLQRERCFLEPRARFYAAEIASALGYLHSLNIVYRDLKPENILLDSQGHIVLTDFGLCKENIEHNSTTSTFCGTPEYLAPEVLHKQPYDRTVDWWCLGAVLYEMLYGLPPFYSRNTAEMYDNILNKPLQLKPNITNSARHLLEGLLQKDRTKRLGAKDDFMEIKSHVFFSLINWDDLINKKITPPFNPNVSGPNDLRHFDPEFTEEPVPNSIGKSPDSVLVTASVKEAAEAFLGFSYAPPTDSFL
Description: as §1

ITK = target: T2, ITK (Homo sapiens, UniProt Q08881); test: Kinome profiling ITK; settings: read-out: Inhibitory activity ITK; for inhibition at 0.1 µM: 100 nM
T2 sequence (Q08881 1-620): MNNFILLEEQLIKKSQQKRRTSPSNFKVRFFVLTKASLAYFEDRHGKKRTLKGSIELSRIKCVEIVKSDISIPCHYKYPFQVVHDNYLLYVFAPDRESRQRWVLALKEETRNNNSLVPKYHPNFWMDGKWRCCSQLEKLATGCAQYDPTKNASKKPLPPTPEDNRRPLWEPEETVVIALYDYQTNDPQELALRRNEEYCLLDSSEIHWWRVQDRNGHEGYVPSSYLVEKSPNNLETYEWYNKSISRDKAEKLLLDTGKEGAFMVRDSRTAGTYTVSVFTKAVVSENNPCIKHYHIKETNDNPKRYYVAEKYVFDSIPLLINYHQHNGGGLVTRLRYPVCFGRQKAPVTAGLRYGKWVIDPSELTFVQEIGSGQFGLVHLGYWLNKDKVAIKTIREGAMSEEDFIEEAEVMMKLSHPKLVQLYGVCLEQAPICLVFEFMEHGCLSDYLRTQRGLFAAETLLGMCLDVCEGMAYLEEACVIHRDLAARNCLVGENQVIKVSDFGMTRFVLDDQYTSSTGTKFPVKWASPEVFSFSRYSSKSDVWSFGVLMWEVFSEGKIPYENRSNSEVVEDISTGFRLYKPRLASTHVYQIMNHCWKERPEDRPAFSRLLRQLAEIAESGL
Description: as §1

GRK7 = target: T3, GRK7 (Homo sapiens, UniProt Q8WTQ7); test: Kinome profiling GRK7; settings: read-out: Inhibitory activity GRK7; for inhibition at 0.1 µM: 100 nM
T3 sequence (Q8WTQ7 1-553): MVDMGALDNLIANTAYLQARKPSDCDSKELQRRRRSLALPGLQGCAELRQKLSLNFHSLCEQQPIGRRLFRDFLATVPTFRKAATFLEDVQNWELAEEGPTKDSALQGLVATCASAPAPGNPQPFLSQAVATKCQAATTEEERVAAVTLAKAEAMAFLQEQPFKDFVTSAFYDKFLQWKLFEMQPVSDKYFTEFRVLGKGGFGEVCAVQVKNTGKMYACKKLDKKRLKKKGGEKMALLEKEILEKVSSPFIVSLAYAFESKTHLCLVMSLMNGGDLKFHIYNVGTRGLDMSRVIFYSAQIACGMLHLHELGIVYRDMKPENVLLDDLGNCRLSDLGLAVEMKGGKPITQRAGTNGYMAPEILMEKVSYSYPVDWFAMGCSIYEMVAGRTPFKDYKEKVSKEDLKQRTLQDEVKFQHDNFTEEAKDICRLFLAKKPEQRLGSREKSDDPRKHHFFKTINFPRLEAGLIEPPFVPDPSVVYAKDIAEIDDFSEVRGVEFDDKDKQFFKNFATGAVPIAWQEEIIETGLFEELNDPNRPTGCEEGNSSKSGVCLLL
Description: as §1

MSK2 = MSK2 (Homo sapiens, UniProt O75676); test: Kinome profiling MSK2; settings: read-out: Inhibitory activity MSK2; for inhibition at 0.1 µM: 100 nM
Description: as §1

PHKγ2 = target: T4, PHKγ2 (Homo sapiens, UniProt P15735); test: Kinome profiling PHKγ2; settings: read-out: Inhibitory activity PHKγ2; for inhibition at 0.1 µM: 100 nM
T4 sequence (P15735 1-406): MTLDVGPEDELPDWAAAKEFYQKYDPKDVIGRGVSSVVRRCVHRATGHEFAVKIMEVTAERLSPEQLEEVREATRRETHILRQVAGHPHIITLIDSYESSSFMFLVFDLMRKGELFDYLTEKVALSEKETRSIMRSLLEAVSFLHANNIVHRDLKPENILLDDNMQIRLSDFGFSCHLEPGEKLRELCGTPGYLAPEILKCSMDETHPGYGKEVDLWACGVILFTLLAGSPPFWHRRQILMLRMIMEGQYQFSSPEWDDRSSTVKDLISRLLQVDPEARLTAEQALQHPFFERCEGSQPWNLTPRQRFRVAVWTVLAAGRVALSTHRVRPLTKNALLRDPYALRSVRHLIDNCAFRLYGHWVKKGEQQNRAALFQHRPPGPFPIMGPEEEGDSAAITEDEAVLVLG
Description: as §1

PKC-γ = PKC-γ (Homo sapiens, UniProt P05129); test: Kinome profiling PKC-γ; settings: read-out: Inhibitory activity PKC-γ; for inhibition at 0.1 µM: 100 nM
Description: as §1

FGFR3 = FGFR3 (Homo sapiens, UniProt P22607); test: Kinome profiling FGFR3; settings: read-out: Inhibitory activity FGFR3; for inhibition at 0.1 µM: 100 nM
Description: as §1

PIM-2 = PIM-2 (Homo sapiens, UniProt Q9P1W9); test: Kinome profiling PIM-2; settings: read-out: Inhibitory activity PIM-2; for inhibition at 0.1 µM: 100 nM
Description: as §1

TRKB = TRKB (Homo sapiens, UniProt Q16620); test: Kinome profiling TRKB; settings: read-out: Inhibitory activity TRKB; for inhibition at 0.1 µM: 100 nM
Description: as §1

Sequence of KDR (P35968 20-1356): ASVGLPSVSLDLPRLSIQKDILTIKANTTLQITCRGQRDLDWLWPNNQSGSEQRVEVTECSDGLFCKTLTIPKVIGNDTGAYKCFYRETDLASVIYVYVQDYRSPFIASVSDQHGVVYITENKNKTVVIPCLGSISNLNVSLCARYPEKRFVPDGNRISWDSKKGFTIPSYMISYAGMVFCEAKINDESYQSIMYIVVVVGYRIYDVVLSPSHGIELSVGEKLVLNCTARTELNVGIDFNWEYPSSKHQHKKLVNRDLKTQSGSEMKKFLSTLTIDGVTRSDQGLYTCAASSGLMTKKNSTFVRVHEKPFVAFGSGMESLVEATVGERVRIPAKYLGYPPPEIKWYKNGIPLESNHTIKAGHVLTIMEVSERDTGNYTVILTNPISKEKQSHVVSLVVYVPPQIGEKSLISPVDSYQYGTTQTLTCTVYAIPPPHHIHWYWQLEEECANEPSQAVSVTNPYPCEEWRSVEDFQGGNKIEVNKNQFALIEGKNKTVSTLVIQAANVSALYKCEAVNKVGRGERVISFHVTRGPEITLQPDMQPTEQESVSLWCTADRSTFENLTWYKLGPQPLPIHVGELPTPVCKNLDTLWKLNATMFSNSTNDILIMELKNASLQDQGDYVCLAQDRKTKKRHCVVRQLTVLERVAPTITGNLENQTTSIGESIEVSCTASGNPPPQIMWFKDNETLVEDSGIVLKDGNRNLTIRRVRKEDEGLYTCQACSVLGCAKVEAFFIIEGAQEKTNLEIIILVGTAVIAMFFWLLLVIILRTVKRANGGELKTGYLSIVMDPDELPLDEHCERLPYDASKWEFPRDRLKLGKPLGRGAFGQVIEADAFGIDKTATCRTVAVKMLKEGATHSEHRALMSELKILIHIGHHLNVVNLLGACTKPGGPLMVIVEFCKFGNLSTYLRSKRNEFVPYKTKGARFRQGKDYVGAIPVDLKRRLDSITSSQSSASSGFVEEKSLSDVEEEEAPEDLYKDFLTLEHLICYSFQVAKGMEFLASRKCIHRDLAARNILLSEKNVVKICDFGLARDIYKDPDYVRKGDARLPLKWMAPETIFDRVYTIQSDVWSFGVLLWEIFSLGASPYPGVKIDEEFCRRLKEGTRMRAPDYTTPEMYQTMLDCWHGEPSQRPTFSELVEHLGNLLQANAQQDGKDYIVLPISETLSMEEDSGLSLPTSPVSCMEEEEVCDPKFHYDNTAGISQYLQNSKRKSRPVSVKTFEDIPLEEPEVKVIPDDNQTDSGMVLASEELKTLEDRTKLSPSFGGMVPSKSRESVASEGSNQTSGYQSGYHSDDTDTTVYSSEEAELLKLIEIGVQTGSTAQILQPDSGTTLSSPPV
Sequence of TRKB (Q16620 32-822): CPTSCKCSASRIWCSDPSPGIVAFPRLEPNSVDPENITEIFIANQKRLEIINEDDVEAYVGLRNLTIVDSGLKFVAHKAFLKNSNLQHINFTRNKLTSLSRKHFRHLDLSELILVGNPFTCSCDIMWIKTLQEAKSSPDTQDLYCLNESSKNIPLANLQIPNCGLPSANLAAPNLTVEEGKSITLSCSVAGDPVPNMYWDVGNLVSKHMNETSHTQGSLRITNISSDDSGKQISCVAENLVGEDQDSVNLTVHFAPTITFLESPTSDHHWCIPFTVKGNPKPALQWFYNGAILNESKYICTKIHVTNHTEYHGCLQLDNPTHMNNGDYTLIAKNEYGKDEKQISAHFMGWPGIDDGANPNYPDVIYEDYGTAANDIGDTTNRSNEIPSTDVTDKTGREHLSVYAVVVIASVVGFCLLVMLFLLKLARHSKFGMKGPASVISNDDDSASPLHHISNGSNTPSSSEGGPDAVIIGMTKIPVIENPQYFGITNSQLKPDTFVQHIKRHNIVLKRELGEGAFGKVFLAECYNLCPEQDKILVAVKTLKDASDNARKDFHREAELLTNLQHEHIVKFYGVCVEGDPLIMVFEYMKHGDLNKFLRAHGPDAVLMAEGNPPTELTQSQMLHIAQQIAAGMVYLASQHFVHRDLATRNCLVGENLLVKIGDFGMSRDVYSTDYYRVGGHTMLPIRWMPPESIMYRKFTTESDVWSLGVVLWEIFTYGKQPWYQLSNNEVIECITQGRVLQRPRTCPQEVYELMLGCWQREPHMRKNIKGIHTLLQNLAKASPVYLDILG
Sequence of PIM-2 (Q9P1W9 whole entry): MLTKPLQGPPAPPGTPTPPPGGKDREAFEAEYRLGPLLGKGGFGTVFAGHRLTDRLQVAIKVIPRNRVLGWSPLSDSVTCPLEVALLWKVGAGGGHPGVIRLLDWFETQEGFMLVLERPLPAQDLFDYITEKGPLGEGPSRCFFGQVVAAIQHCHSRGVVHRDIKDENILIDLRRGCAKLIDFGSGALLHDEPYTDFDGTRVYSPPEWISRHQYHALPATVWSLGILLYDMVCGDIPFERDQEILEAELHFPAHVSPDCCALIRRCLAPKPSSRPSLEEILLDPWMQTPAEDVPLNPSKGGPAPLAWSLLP
Sequence of FGFR3 (P22607 23-806): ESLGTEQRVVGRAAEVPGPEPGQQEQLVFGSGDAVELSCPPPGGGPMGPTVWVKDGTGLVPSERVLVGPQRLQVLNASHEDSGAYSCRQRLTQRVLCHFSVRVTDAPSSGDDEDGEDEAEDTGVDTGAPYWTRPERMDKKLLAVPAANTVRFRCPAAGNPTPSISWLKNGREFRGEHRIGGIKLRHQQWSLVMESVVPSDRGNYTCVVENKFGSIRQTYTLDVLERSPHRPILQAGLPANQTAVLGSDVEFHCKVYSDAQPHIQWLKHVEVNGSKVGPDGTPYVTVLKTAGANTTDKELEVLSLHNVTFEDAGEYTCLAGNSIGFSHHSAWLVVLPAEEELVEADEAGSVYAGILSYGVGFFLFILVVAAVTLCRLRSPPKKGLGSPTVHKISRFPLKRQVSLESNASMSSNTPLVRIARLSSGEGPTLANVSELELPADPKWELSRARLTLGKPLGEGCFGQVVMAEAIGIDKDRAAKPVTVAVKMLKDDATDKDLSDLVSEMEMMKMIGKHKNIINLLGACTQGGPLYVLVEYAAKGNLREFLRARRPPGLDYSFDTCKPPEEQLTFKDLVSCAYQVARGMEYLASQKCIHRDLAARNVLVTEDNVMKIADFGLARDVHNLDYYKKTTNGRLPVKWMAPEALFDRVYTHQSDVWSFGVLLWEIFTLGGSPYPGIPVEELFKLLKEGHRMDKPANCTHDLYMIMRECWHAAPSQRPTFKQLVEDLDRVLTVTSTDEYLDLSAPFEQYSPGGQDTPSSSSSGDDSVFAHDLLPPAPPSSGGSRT
Sequence of MSK2 (O75676 whole entry): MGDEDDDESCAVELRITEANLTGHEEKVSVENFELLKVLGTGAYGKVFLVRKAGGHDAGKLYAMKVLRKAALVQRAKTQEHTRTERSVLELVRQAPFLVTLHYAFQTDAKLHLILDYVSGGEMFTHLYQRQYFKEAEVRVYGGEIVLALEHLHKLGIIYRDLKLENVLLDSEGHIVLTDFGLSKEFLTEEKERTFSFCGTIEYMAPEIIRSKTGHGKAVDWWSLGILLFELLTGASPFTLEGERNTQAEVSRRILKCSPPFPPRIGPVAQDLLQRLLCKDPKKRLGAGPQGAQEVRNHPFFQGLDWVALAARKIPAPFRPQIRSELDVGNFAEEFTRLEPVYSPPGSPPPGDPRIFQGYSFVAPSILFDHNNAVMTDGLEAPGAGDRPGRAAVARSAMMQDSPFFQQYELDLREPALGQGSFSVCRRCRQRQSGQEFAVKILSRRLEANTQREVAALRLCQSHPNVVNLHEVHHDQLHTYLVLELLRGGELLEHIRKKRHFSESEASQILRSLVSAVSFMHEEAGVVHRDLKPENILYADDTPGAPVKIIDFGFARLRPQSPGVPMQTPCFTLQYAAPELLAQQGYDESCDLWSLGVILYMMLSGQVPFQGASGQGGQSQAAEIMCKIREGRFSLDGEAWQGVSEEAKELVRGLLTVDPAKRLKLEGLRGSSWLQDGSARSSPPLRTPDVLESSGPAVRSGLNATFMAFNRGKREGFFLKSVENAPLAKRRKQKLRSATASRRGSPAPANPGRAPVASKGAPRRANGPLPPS

Row | SMILES | inhibition at 0.1 µM (KDR) | inhibition at 1 µM (KDR) | inhibition at 0.1 µM (SGK1) | inhibition at 1 µM (SGK1) | inhibition at 0.1 µM (ITK) | inhibition at 1 µM (ITK) | inhibition at 0.1 µM (GRK7) | inhibition at 1 µM (GRK7) | inhibition at 0.1 µM (MSK2) | inhibition at 1 µM (MSK2) | inhibition at 0.1 µM (PHKγ2) | inhibition at 1 µM (PHKγ2) | inhibition at 0.1 µM (PKC-γ) | inhibition at 1 µM (PKC-γ) | inhibition at 0.1 µM (FGFR3) | inhibition at 1 µM (FGFR3) | inhibition at 0.1 µM (PIM-2) | inhibition at 1 µM (PIM-2) | inhibition at 0.1 µM (TRKB) | inhibition at 1 µM (TRKB)
1 | COc1cc(-c2cc(-c3ccc(N4CCNCC4)cc3)cnc2C)cc(OC)c1OC [Compound 10, 1-(4-(6-methyl-5-(3,4,5-trimethoxyphenyl)pyridin-3-yl)phenyl)piperazine] | 0% | 3% | 2% | 1% | 0% | -1% | 3% | 4% | 0% | 1% | 1% | 0% | 3% | 5% | 0% | 0% | 0% | 0% | 3% | 3%
2 | COc1cc(-c2cc(-c3ccc(N4CCNCC4)cc3)cnc2N)cc(OC)c1OC [Compound 15, 5-(4-(piperazin-1-yl)phenyl)-3-(3,4,5-trimethoxyphenyl)pyridin-2-amine] | 6% | 22% | 3% | 1% | 0% | 2% | 2% | 0% | 1% | -1% | 2% | 3% | 1% | 4% | 2% | 6% | 0% | 0% | 2% | 3%
